By IC50 is commonly meant the point on the concentration scale where inhibition reaches its midpoint.

27 compounds from patent publication US20240199605A1, “SMALL MOLECULAR INHIBITORS OF NF-kB INDUCING KINASE” (Janssen Pharmaceutica NV, priority 2019, published 2024) can be followed below.

The structures appear in SMILES notation. Read-outs that look alike come from different tables or passages of the source.

Test [1] has as its target recombinant human NF-kappaB-inducing kinase (NIK/MAP3K14) (Homo sapiens (Human), UniProt Q99558). Kind of test: Inhibition of auto-phosphorylation of recombinant human NIK/MAP3K14 (AlphaScreen). The class given is biochemical. The conditions noted are these: NIK auto-phosphorylation, 5 μM ATP, 1 nM NIK, 2 h at 25° C.; average of values. The essentials: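 AlphaScreen read-out (anti-phospho-IKK Ser176/180 antibody, Protein A acceptor and glutathione donor beads) of NIK auto-phosphorylation. Reaction: 1 nM enzyme, 5 μM ATP, Tris pH 7.5 buffer with Mg2+ and vanadate, 2 h at 25° C., final DMSO 0.7%. IC50 came from a sigmoidal curve fit.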

Test [2] has as its system p-IKKα levels in L363 (NIK translocated multiple myeloma) cells. Kind of test: Effect of compounds on p-IKKα levels in L363 cells (AlphaLISA SureFire Ultra). The class given is cell-based, human. The following applies: BAFF stimulated, MG132, 6 h, average of values, read-out: Assay 2 IC50. Summed up: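 Inhibition of p-IKKα (Ser176/180) read by AlphaLISA after 6 h, 37 °C compound exposure (11-point 1:3 series, 0.3% DMSO) of L363 cells pre-incubated overnight ± 250 ng/ml BAFF and plated ± BAFF ± 10 μM MG132. Normalised to BAFF/MG132/DMSO and unstimulated controls; IC50 by sigmoidal fitting, duplicates.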
For orientation: Alpha assays give light when donor and acceptor beads are brought close together.

Sequence of recombinant human NF-kappaB-inducing kinase (NIK/MAP3K14) (Q99558 whole entry): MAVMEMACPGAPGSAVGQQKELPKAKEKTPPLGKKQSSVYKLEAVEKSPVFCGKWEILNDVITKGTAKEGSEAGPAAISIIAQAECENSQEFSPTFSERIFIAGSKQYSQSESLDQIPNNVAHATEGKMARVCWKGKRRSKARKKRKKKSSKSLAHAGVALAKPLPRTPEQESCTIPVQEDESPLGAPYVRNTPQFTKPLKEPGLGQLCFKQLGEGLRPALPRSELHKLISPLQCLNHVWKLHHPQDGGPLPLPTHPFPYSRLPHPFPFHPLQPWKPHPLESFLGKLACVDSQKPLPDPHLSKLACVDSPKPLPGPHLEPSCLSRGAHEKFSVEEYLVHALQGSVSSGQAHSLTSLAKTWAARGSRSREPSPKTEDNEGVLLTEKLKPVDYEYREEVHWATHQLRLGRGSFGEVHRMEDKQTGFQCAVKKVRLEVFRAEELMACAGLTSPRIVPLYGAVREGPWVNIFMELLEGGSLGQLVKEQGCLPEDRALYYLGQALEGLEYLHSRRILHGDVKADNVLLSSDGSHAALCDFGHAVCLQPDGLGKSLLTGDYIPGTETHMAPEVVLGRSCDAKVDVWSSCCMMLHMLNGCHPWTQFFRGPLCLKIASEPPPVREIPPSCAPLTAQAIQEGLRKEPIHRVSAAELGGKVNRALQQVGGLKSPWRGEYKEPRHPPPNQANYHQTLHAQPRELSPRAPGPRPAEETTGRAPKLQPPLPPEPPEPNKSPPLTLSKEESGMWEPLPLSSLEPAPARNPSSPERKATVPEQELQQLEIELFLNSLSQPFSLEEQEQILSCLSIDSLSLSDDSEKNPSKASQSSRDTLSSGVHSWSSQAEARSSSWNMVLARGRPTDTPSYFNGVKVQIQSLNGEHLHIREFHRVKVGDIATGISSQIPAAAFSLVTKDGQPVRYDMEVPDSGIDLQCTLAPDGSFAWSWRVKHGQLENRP

With `Cc1ccc(C#C[C@]2(O)CCN(C)C2=O)cc1-c1ncc2ncnc(N)c2n1` [Example 188, (R)-3-((3-(8-Aminopyrimido[5,4-d]pyrimidin-2-yl)-4-methylphenyl)ethynyl)-3-hydroxy-1-methylpyrrolidin-2-one], the IC50 in test [1] turned out to be 1 nM; in test [2] (Homo sapiens, L-363, 6 h) it was 23 nM.
For `Cc1nc(-c2cccc(C#C[C@@]3(O)CCN(C)C3=O)c2)nc2c(N)ncnc12` [Example 5, (S)-3-((3-(8-Amino-4-methylpyrimido[5,4-d]pyrimidin-2-yl)phenyl)ethynyl)-3-hydroxy-1-methylpyrrolidin-2-one], in that order: 230 nM and 1560 nM.
Take `CN1CC[C@@](O)(C#Cc2cccc(-c3ccc4ncnc(C5CC5)c4n3)c2)C1=O` [Example 270, (R)-3-((3-(4-Cyclopropylpyrido[3,2-d]pyrimidin-6-yl)phenyl)ethynyl)-3-hydroxy-1-methylpyrrolidin-2-one]: the IC50 in test [1] came to 26 nM; in test [2] (Homo sapiens, L-363, 6 h), 1000 nM.
In the case of `Cc1nc(-c2cccc(C#C[C@]3(O)CCN(CC(F)(F)F)C3=O)c2)nc2c(N)nccc12` [Example 92, (R)-3-[2-[3-(8-Amino-4-methyl-pyrido[3,4-d]pyrimidin-2-yl)phenyl]ethynyl]-3-hydroxy-1-(2,2,2-trifluoroethyl)pyrrolidin-2-one], the IC50 in test [1] turned out to be 6.6 nM; in test [2] (Homo sapiens, L-363, 6 h), 480 nM.
For `Cc1cc([C@](C)(O)C#Cc2ccc(C)c(-c3ccc4ccnc(N)c4c3)c2)no1` [Example 79, (R)-4-[3-(1-Amino-7-isoquinolyl)-4-methyl-phenyl]-2-(5-methylisoxazol-3-yl)but-3-yn-2-ol], in that order: 590 nM and more than 5000 nM.
With `CN1CC[C@@](O)(C#Cc2cccc(N3CCCc4ncnc(N)c4C3)c2)C1=O` [Example 224, (R)-3-((3-(4-Amino-5,7,8,9-tetrahydro-6H-pyrimido[5,4-c]azepin-6-yl)phenyl)ethynyl)-3-hydroxy-1-methylpyrrolidin-2-one], the IC50 in test [1] was 250 nM; in test [2] (Homo sapiens, L-363, 6 h) it was more than 5000 nM.
In the case of `CN1CC[C@@](O)(C#Cc2cccc(-c3nc4c(N)nccc4c(=O)[nH]3)c2)C1=O` [Example 55, (R)-8-Amino-2-(3-((3-hydroxy-1-methyl-2-oxopyrrolidin-3-yl)ethynyl)phenyl)pyrido[3,4-d]pyrimidin-4(3H)-one], the concentration for half-maximal inhibition (IC50) was not above 0.5 nM in test [1] and 29 nM in test [2] (Homo sapiens, L-363, 6 h).
For `Cc1ccc(C#C[C@]2(O)CCN(C)C2=O)cc1N1CCc2ncnc(N)c2C1` [Example 220, (R)-3-((3-(4-Amino-7,8-dihydropyrido[4,3-d]pyrimidin-6(5H)-yl)-4-methylphenyl)ethynyl)-3-hydroxy-1-methylpyrrolidin-2-one], in that order: 1.3 nM and 65 nM.
With `[2H]c1nc(N)c2nc(-c3cc(C#C[C@]4(O)CCN(C)C4=O)ccc3OC(F)(F)F)ccc2n1` [Example 29, (R)-3-((3-(4-aminopyrido[3,2-d]pyrimidin-6-yl-2-d)-4-(trifluoromethoxy)phenyl)ethynyl)-3-hydroxy-1-methylpyrrolidin-2-one], the IC50 in test [1] is 4.1 nM; in test [2] (Homo sapiens, L-363, 6 h), 45 nM.
As to `[2H]C([2H])([2H])N1CC[C@@](O)(C#Cc2ccc(C)c(-c3ccc4ccnc(N)c4c3)c2)C1=O` (single isomer, unassigned) [Example 71], the IC50 in test [1] is 4220 nM; in test [2], more than 5000 nM.
As for `Cc1ccc(-c2nc3c(N)ncnc3s2)cc1C#C[C@]1(O)CCN(C)C1=O` [Example 152, (R)-3-((5-(7-Aminothiazolo[5,4-d]pyrimidin-2-yl)-2-methylphenyl)ethynyl)-3-hydroxy-1-methylpyrrolidin-2-one], the IC50 in test [1] was 3.8 nM; in test [2] (Homo sapiens, L-363, 6 h), 200 nM.
For `COc1cc(-c2cccc(C#C[C@]3(O)CCN(C)C3=O)c2)cc2c(N)ncnc12` [Example 114, (R)-3-((3-(4-Amino-8-methoxyquinazolin-6-yl)phenyl)ethynyl)-3-hydroxy-1-methylpyrrolidin-2-one], in that order: not above 0.5 nM and 120 nM.
On to `Cc1ccc(C#C[C@]2(O)CCc3cccnc32)cc1-c1nc2c(N)ncnc2s1` [Example 184, (R)-7-[2-[3-(7-Aminothiazolo[5,4-d]pyrimidin-2-yl)-4-methyl-phenyl]ethynyl]-5,6-dihydrocyclopenta[b]pyridin-7-ol], for which the IC50 was not above 0.5 nM in test [1] and 9.9 nM in test [2] (Homo sapiens, L-363, 6 h).
For `CN1CC[C@@](O)(C#Cc2cccc(-c3cc(Cl)c4ncnc(N)c4c3)c2)C1=O` [Example 117, (R)-3-((3-(4-Amino-8-chloroquinazolin-6-yl)phenyl)ethynyl)-3-hydroxy-1-methylpyrrolidin-2-one], in that order: not above 0.5 nM and 33 nM.
On the same counts, the results for `Cc1nc(N)c2nc(-c3cccc(C#C[C@@]4(O)CCCN(C)C4=O)c3)ccc2n1` [Example 186, (S)-3-((3-(4-Amino-2-methylpyrido[3,2-d]pyrimidin-6-yl)phenyl)ethynyl)-3-hydroxy-1-methylpiperidin-2-one] are 710 nM and more than 5000 nM.
On the same counts, the results for `Cc1nc(N)c2nc(-c3cccc(C#C[C@@](C)(O)c4nccs4)c3)ccc2n1` [Example 164, (R)-4-(3-(4-Amino-2-methylpyrido[3,2-d]pyrimidin-6-yl)phenyl)-2-(thiazol-2-yl)but-3-yn-2-ol] are 0.7 nM and 78 nM.
On to `Cc1nc(N)c2nc(-c3cccc(C#C[C@]4(O)CCN(C)C4=O)c3)cc(C)c2n1` [Example 285, (R)-3-((3-(4-Amino-2,8-dimethylpyrido[3,2-d]pyrimidin-6-yl)phenyl)ethynyl)-3-hydroxy-1-methylpyrrolidin-2-one], for which the IC50 worked out at 1.7 nM in test [1] and 12 nM in test [2] (Homo sapiens, L-363, 6 h).
On the same counts, the results for `Cc1nc(N)c2nc(-c3cccc(C#CC(C)(O)c4c[nH]cn4)c3)ccc2n1` (racemic) [Example 202, racemic-4-(3-(4-Amino-2-methylpyrido[3,2-d]pyrimidin-6-yl)phenyl)-2-(1H-imidazol-4-yl)but-3-yn-2-ol] are 1 nM and 280 nM.
For `CC1(C)CC[C@](O)(C#Cc2cccc(-c3ccc4ncnc(N)c4n3)c2)C1=O` [Example 132, (S)-2-[2-[3-(4-Aminopyrido[3,2-d]pyrimidin-6-yl)phenyl]ethynyl]-2-hydroxy-5,5-dimethyl-cyclopentanone], in that order: 46 nM and 730 nM.
For `Cc1nc(N)c2nc(-c3cccc(C#C[C@](C)(O)c4nc(C(F)(F)F)cs4)c3)ccc2n1` [Example 193, (S)-4-(3-(4-Amino-2-methylpyrido[3,2-d]pyrimidin-6-yl)phenyl)-2-(4-(trifluoromethyl)thiazol-2-yl)but-3-yn-2-ol], in that order: 2370 nM and more than 5000 nM.
For the compound `Cc1nc(N)c2nc(-c3cccc(C#C[C@](C)(O)c4cnccn4)c3)ccc2n1` [Example 201, (S)-4-[3-(4-Amino-2-methyl-pyrido[3,2-d]pyrimidin-6-yl)phenyl]-2-pyrazin-2-yl-but-3-yn-2-ol], the IC50 is 4030 nM in test [1] and more than 5000 nM in test [2] (Homo sapiens, L-363, 6 h).
Turning to `CN1CC[C@@](O)(C#Cc2cccc(-c3cc(-n4cccn4)c4ncnc(N)c4n3)c2)C1=O` [Example 303, (R)-3-[2-[3-(4-Amino-8-pyrazol-1-yl-pyrido[3,2-d]pyrimidin-6-yl)phenyl]ethynyl]-3-hydroxy-1-methyl-pyrrolidin-2-one], the half-inhibitory concentration (IC50) in test [1] was 0.9 nM; in test [2] (Homo sapiens, L-363, 6 h), 11 nM.
As to `[2H]c1nc(N)c2nc(-c3cc(C#C[C@]4(O)CCN(C)C4=O)ccc3C)ccc2n1` [Example 149, (R)-3-((3-(4-Aminopyrido[3,2-d]pyrimidin-6-yl-2-d)-4-methylphenyl)ethynyl)-3-hydroxy-1-methylpyrrolidin-2-one], the IC50 was not above 0.5 nM in test [1] and 17 nM in test [2] (Homo sapiens, L-363, 6 h).
On to `Cc1cc(-c2cccc(C#C[C@]3(O)CCN(C)C3=O)c2)nc2c(C)ncnc12` [Example 250, (R)-3-((3-(4,8-Dimethylpyrido[3,2-d]pyrimidin-6-yl)phenyl)ethynyl)-3-hydroxy-1-methylpyrrolidin-2-one], for which the IC50 in test [1] came out at 7.9 nM; in test [2] (Homo sapiens, L-363, 6 h), 130 nM.
As for `CN1CC[C@@](O)(C#Cc2cccc(-c3ccc4c(Br)cnc(N)c4n3)c2)C1=O` [Example 112, (R)-3-[2-[3-(8-Amino-5-bromo-1,7-naphthyridin-2-yl)phenyl]ethynyl]-3-hydroxy-1-methyl-pyrrolidin-2-one], the IC50 in test [1] was not above 0.5 nM; in test [2] (Homo sapiens, L-363, 6 h) it was 4.8 nM.
For `Cc1ccc(C#C[C@]2(O)CCN(CC(F)(F)F)C2=O)cc1-c1ccc2ccnc(N)c2c1` [Example 77, (R)-3-[2-[3-(1-Amino-7-isoquinolyl)-4-methyl-phenyl]ethynyl]-3-hydroxy-1-(2,2,2-trifluoroethyl)pyrrolidin-2-one], in that order: more than 5000 nM and more than 5000 nM.
On the same counts, the results for `Cc1nc(N)c2nc(-c3cccc(C#C[C@]4(O)C[C@H](C)N(C)C4=O)c3)ccc2n1` [Example 268, (3R,5S)-3-((3-(4-Amino-2-methylpyrido[3,2-d]pyrimidin-6-yl)phenyl)ethynyl)-3-hydroxy-1,5-dimethylpyrrolidin-2-one] are 65 nM and 585 nM.
